Measurements reported in patent publication US20180333418A1, “USE OF PAN FGFR INHIBITORS AND METHOD OF IDENTIFYING PATIENTS WITH CANCER ELIGIBLE FOR TREATMENT WITH A PAN FGFR INHIBITOR” (BAYER PHARMA AKTIENGESELLSCHAFT, priority 2014, published 2018).

Assays:
[1] = system: SNU16 gastric tumor model; assay: SNU16 xenograft in vivo efficacy; set-up: species or system nu/nu mice; conditions: tumor weight reduction
Procedure: (§1) For all other tumors as listed in table 2 & 3 the experiments were carried out in an analogous way as described above.

H716 colon tumor model = assay: H716 xenograft in vivo efficacy; set-up: species or system nu/nu mice; conditions: tumor weight reduction
Procedure: as §1

[2] = system: HN9897 Head & Neck squamous cell carcinoma; assay: HN9897 patient-derived xenograft study; assay type: in vivo, nu/nu mice
[3] = system: RT112 bladder tumor model; assay: RT112 xenograft in vivo efficacy; set-up: species or system nu/nu mice; conditions: tumor weight reduction
Procedure: as §1

H520 lung tumor model = assay: H520 xenograft in vivo efficacy; set-up: species or system nu/nu mice; conditions: tumor weight reduction
Procedure: as §1

H1581 lung tumor model = assay: H1581 xenograft in vivo efficacy; set-up: species or system nu/nu mice; conditions: tumor weight reduction
Procedure: as §1

[4] = system: MFM223 breast tumor model; assay: MFM223 xenograft in vivo efficacy; set-up: species or system nu/nu mice; conditions: tumor weight reduction
Procedure: as §1

[5] = system: LXFL1121 lung tumor model; assay: LXFL1121 xenograft in vivo efficacy; set-up: species or system nu/nu mice; conditions: tumor weight reduction
Procedure: as §1

LU299 lung tumor model = assay: LU299 xenograft in vivo efficacy; set-up: species or system nu/nu mice; conditions: tumor weight reduction
Procedure: as §1

LXFE211 lung tumor model = assay: LXFE211 xenograft in vivo efficacy; set-up: species or system nu/nu mice; conditions: tumor weight reduction
Procedure: as §1

LU0697 lung tumor model = assay: LU0697 xenograft in vivo efficacy; set-up: species or system nu/nu mice; conditions: tumor weight reduction
Procedure: as §1

[6] = system: HN366 head&neck tumor model; assay: HN366 xenograft in vivo efficacy; set-up: species or system nu/nu mice; conditions: tumor weight reduction
Procedure: as §1

[7] = system: HNXF908 head&neck tumor model; assay: HNXF908 xenograft in vivo efficacy; set-up: species or system nu/nu mice; conditions: tumor weight reduction
Procedure: as §1

DMS114 lung tumor model = assay: DMS114 xenograft in vivo efficacy; set-up: species or system nu/nu mice; conditions: tumor weight reduction
Procedure: as §1

[8] = system: A2780 ovarian tumor model; assay: A2780 xenograft in vivo efficacy; set-up: species or system nu/nu mice; conditions: tumor weight reduction
Procedure: as §1

[9] = system: FGFR mRNA-positive tumors of cancer patients; assay: Clinical trial NCT01976741, RECIST CT scan evaluation; assay type: in vivo; set-up: key to RECIST response after C2 / RECIST response after C5: Stable Disease (SD) according to RECIST; progressive disease (PD); conditions: 800 mg BID; for % tumor change after C2 / RECIST response after C2: C2 = 6 weeks; for % tumor change after C5 / RECIST response after C5: C5 = 15 weeks

Compound: COCc1c(-c2cc3cc(C)cc(OC)c3s2)c2c(N)ncnn2c1CN1CCNC(=O)C1 [compound of formula (I)]
- in vivo efficacy [1]: yes (All models in which the tumor weight was reduced upon treatment with compounds of formula (I) by at least 50% were considered to be efficacious in vivo.)
- in vivo efficacy (H716 colon tumor model): yes (All models in which the tumor weight was reduced upon treatment with compounds of formula (I) by at least 50% were considered to be efficacious in vivo.)
- T/C at day 44 post treatment start ([2]; HN9897, 50 mg/kg 2QD po, treated mean/vehicle mean tumor volume): 0.08
- in vivo efficacy ([2]; HN9897 head&neck model, tumor weight reduction): yes (All models in which the tumor weight was reduced upon treatment with compounds of formula (I) by at least 50% were considered to be efficacious in vivo.)
- in vivo efficacy [3]: yes (All models in which the tumor weight was reduced upon treatment with compounds of formula (I) by at least 50% were considered to be efficacious in vivo.)
- in vivo efficacy (H520 lung tumor model): no (All models in which the tumor weight was reduced upon treatment with compounds of formula (I) by at least 50% were considered to be efficacious in vivo.)
- in vivo efficacy (H1581 lung tumor model): yes (All models in which the tumor weight was reduced upon treatment with compounds of formula (I) by at least 50% were considered to be efficacious in vivo.)
- in vivo efficacy [4]: yes (All models in which the tumor weight was reduced upon treatment with compounds of formula (I) by at least 50% were considered to be efficacious in vivo.)
- in vivo efficacy [5]: yes (All models in which the tumor weight was reduced upon treatment with compounds of formula (I) by at least 50% were considered to be efficacious in vivo.)
- in vivo efficacy (LU299 lung tumor model): yes (All models in which the tumor weight was reduced upon treatment with compounds of formula (I) by at least 50% were considered to be efficacious in vivo.)
- in vivo efficacy (LXFE211 lung tumor model): yes (All models in which the tumor weight was reduced upon treatment with compounds of formula (I) by at least 50% were considered to be efficacious in vivo.)
- in vivo efficacy (LU0697 lung tumor model): yes (All models in which the tumor weight was reduced upon treatment with compounds of formula (I) by at least 50% were considered to be efficacious in vivo.)
- in vivo efficacy [6]: yes (All models in which the tumor weight was reduced upon treatment with compounds of formula (I) by at least 50% were considered to be efficacious in vivo.)
- in vivo efficacy [7]: yes (All models in which the tumor weight was reduced upon treatment with compounds of formula (I) by at least 50% were considered to be efficacious in vivo.)
- in vivo efficacy (DMS114 lung tumor model): yes (All models in which the tumor weight was reduced upon treatment with compounds of formula (I) by at least 50% were considered to be efficacious in vivo.)
- in vivo efficacy [8]: yes (All models in which the tumor weight was reduced upon treatment with compounds of formula (I) by at least 50% were considered to be efficacious in vivo.)
- % tumor change after C2 ([9]; Pat 100010010, sqNSCLC): 0%
- RECIST response after C2 ([9]; Pat 100010010, sqNSCLC): SD
- % tumor change after C5 ([9]; Pat 100010010, sqNSCLC): +8%
- RECIST response after C5 ([9]; Pat 100010010, sqNSCLC): SD
- % tumor change after C2 ([9]; Pat 100010018, Mesothelioma): +14%
- RECIST response after C2 ([9]; Pat 100010018, Mesothelioma): SD
- % tumor change after C2 ([9]; Pat 100020012, sqNSCLC): −10%
- RECIST response after C2 ([9]; Pat 100020012, sqNSCLC): SD
- % tumor change after C2 ([9]; Pat 560020029, sqNSCLC): +4%
- RECIST response after C2 ([9]; Pat 560020029, sqNSCLC): SD
- % tumor change after C5 ([9]; Pat 560020029, sqNSCLC): +5%
- RECIST response after C5 ([9]; Pat 560020029, sqNSCLC): SD
- % tumor change after C2 ([9]; Pat 560020064, SCLC): −2%
- RECIST response after C2 ([9]; Pat 560020064, SCLC): SD
- % tumor change after C2 ([9]; Pat 580010012, sqNSCLC): −10%
- RECIST response after C2 ([9]; Pat 580010012, sqNSCLC): SD
- % tumor change after C5 ([9]; Pat 580010012, sqNSCLC): −10%
- RECIST response after C5 ([9]; Pat 580010012, sqNSCLC): SD
- % tumor change after C2 ([9]; Pat 580010016, sqNSCLC): −5%
- RECIST response after C2 ([9]; Pat 580010016, sqNSCLC): SD
- % tumor change after C5 ([9]; Pat 580010016, sqNSCLC): −6%
- RECIST response after C5 ([9]; Pat 580010016, sqNSCLC): SD
- % tumor change after C2 ([9]; Pat 580010022, Bladder): −3%
- RECIST response after C2 ([9]; Pat 580010022, Bladder): SD
- % tumor change after C5 ([9]; Pat 580010022, Bladder): −2%
- RECIST response after C5 ([9]; Pat 580010022, Bladder): SD
- % tumor change after C2 ([9]; Pat 580010038, Unknown primary): +26%
- RECIST response after C2 ([9]; Pat 580010038, Unknown primary): PD
